Series [1] has as its system human diffuse large cell lymphoma B lymphocytes (Pfeiffer cell). The series can be described thus: Pfeiffer cell proliferation, Calcein AM staining. The series is classed as cell-based.
Source text: The diffuse large cell lymphoma B lymphocytes (Pfeiffer cells) were collected and counted when growing well.
A short description of series [2]: Pharmacokinetic experiment in rats. Type of series: in vivo, SD rats. How it is done:
A certain amount of compound was weighted and dissolved in 0.1% Tween under vortex and ultrasound, and 0.5% carboxymethyl cellulose sodium (CMC-NA) solution was added to form a uniform solution.

Series [3] relates to human diffuse large B-cell lymphoma cells (Karpas 422 cell). The experiment in a line: Karpas 422 cell proliferation, Calcein AM staining. Type of series: cell-based.
[4] abbreviates: Homo sapiens, Pfeiffer, data of 14th day, read-out: Pfeiffer Proliferation IC50 Nanomoles per Liter.
Where [5] appears, read: male, SD, rat, plasma, rats, Intravenous-Dose 4 mg/kg, read-out: Area Curve (AUC, ng/mL · h).
The mark [6] stands for this setting: male, SD, rat, plasma; rats, Intravenous-Dose 4 mg/kg; read-out: Half life T1/2, h) (converted).
[7] abbreviates: male, SD, rat, plasma, rats, Oral-Dose 20 mg/kg, read-out: Area Curve (AUC, ng/mL · h).
[8] abbreviates: male, SD, rat, plasma, rats, Oral-Dose 20 mg/kg, read-out: Blood Drug level (Cmax, ng/mL).
[9] abbreviates: male, SD, rat, plasma, rats, oral 20 mg/kg vs intravenous 4 mg/kg, read-out: Bioavailability (P %).
Where [10] appears, read: Homo sapiens, KARPAS-422, data of 14th day, read-out: Karpas422 Proliferation IC50 Nanomoles per Liter.
The mark [11] stands for this setting: male, SD, rat, in vivo, iv, 4 mg/kg.
Where [12] appears, read: male, SD, rat, in vivo, po, 20 mg/kg.
Setting [13] is: Homo sapiens, KARPAS-422, read-out: Karpas422 Proliferation IC50 Nanomoles per Liter (nM).

Counter-ions that a name gives are not always drawn. Like-named read-outs stand apart in the source and are kept apart here.

For `CCN(c1cc(-c2ccc3c(c2)N(CC(F)(F)F)C(=O)C32CCOCC2)cc(C(=O)NCc2c(C)cc(C)[nH]c2=O)c1C)C1CCOCC1` [Example 13, N-((4,6-dimethyl-2-carbonyl-1,2-dihydropyridin-3-yl)methyl)-3-(ethyl(tetrahydro-2H-pyran-4-yl)amino)-2-methyl-5-(2-carbonyl-1-(2,2,2-trifluoroethyl)-2′,3′,5′,6′-tetrahydrospiro[dihydroindole-3,4′-pyran]-6-yl)benzamide], the IC50 in series [1] (setting [4]) was 0.94 nM; in series [3] (setting [10]), 1.94 nM. Also, the AUC in series [2] (setting [5]) came out at 975 ng·h/mL; in series [2] (setting [7]), 1190 ng·h/mL. The half-life in series [2] (setting [6]) is 1.87 h. Moreover, the Cmax in series [2] (setting [8]) turned out to be 433 ng/mL. The bioavailability (commonly dose-corrected exposure relative to a reference, in per cent) in series [2] (setting [9]) was determined as 24.4%.

Consider `CCN(c1cc(-c2ccc3c(c2)N(CCC(F)(F)F)C(=O)C32CCOCC2)cc(C(=O)NCc2c(C)cc(C)[nH]c2=O)c1C)C1CCOCC1` [Example 14, N-((4,6-dimethyl-2-carbonyl-1,2-dihydropyridin-3-yl)methyl)-3-(ethyl(tetrahydro-2H-pyran-4-yl)amino)-2-methyl-5-(2-carbonyl-1-(3,3,3-trifluoropropyl)-2′,3′,5′,6′-tetrahydrospiro[dihydroindole-3,4′-pyran]-6-yl)benzamide], for which the IC50 in series [1] (setting [4]) was 0.68 nM; in series [3] (setting [10]), 1.73 nM. The AUC in series [2] (setting [5]) was 966 ng·h/mL; in series [2] (setting [7]), 1290 ng·h/mL. The half-life in series [2] (setting [6]) is 1.69 h. Further, the Cmax in series [2] (setting [8]) was determined as 530 ng/mL. Moreover, the bioavailability in series [2] (setting [9]) was found to be 26.8%.

`CCN(c1cc(-c2ccc3c(c2)N(CC(F)(F)F)CC32CCOCC2)cc(C(=O)NCc2c(C)cc(C)[nH]c2=O)c1C)C1CCOCC1` [Example 20, N-((4,6-dimethyl-2-carbonyl-1,2-dihydropyridin-3-yl)methyl)-3-(ethyl(tetrahydro-2H-pyran-4-yl)amino)-2-methyl-5-(1-(2,2,2-trifluoroethyl)-2′,3′,5′,6′-tetrahydrospiro[dihydroindole-3,4′-pyran]-6-yl)benzamide]: the IC50 in series [1] (setting [4]) was 2.32 nM; in series [3] (setting [10]), 3.03 nM.

Turning to `CCN(c1cc(-c2ccc3c(c2)N(CCC(F)(F)F)CC32CCOCC2)cc(C(=O)NCc2c(C)cc(C)[nH]c2=O)c1C)C1CCOCC1` [Example 26, N-((4,6-dimethyl-2-oxo-1,2-dihydropyridin-3-yl)methyl)-3-(ethyl(tetrahydro-2H-pyran-4-yl)amino)-2-methyl-5-(1-(3,3,3-trifluoropropyl)-2′,3′,5′,6′-tetrahydrospiro[indoline-3,4′-pyran]-6-yl)benzamide], the values for the IC50 in series [1] (setting [4]) and in series [3] (setting [10]) were 1.85 nM and 2.53 nM, respectively.

Take `CCN1CCC2(CC1)CN(C)c1cc(-c3cc(C(=O)NCc4c(C)cc(C)[nH]c4=O)c(C)c(N(CC)C4CCOCC4)c3)ccc12` [Example 30, N-((4,6-dimethyl-2-oxo-1,2-dihydropyridin-3-yl)methyl)-3-(ethyl(tetrahydro-2H-pyran-4-yl)amino)-5-(1′-ethyl-1-methylspiro[dihydroindole-3,4′-piperidine]-6-yl)-2-methylbenzamide]: in series [1] (setting [4]), the IC50 was […]. In series [2] (setting [11]), this compound had an AUC of 879 ng·h/mL and a half-life of 1.24 h. In series [2] (setting [12]), this compound came in with an AUC of 1260 ng·h/mL, a Cmax of 443 ng/mL and a bioavailability of 28.6%. Further, the IC50 in series [3] (setting [10]) was 1.2 nM.

As for `CCN(c1cc(-c2ccc3c(c2)N(C)CC32CCN(C(=O)OC)CC2)cc(C(=O)NCc2c(C)cc(C)[nH]c2=O)c1C)C1CCOCC1` [Example 33, Methyl 6-(3-(((4,6-dimethyl-2-carbonyl-1,2-dihydropyridin-3-yl)methyl)carbamoyl)-5-(ethyl(tetrahydro-2H-pyran-4-yl)amino)-4-methylphenyl)-1-methylspiro[dihydroindole-3,4′-piperidine]-1′-carboxylate], the IC50 is 3.1 nM in series [1] (setting [4]) and 4.92 nM in series [3] (setting [10]).

Take `CCN(c1cc(-c2ccc3c(c2)N(C)CC32CCOCC2)cc(C(=O)NCc2c(OC)cc(C)[nH]c2=O)c1C)C1CCN(CC(F)(F)F)CC1` [Example 40, 3-(ethyl(1-(2,2,2-trifluoroethyl)piperidin-4-yl)amino)-N-((4-methoxy-6-methyl-2-carbonyl-1,2-dihydropyridin-3-yl)methyl)-2-methyl-5-(1-methyl-2′,3′,5′,6′-tetrahydrospiro[dihydroindole-3,4′-pyran]-6-yl)benzamide]: the values for the IC50 in series [1] (setting [4]) and in series [3] (setting [10]) were 2.49 nM and 3.09 nM, respectively.

Take `CCN1C(=O)C2(CCOCC2)c2ccc(-c3cc(N(CC)C4CCOCC4)c(C)c(C(=O)NCc4c(C)cc(C)[nH]c4=O)c3Cl)cc21` [Example 48, 2-chloro-N-((4,6-dimethyl-2-oxo-1,2-dihydropyridin-3-yl)methyl)-5-(ethyl(tetrahydro-2H-pyran-4-yl)amino)-3-(1-ethyl-2-oxo-2′,3′,5′,6′-tetrahydrospiro[dihydroindole-3,4′-pyran]-6-yl)-6-methylbenzamide]: the IC50 in series [1] (Homo sapiens, Pfeiffer, read-out: Pfeiffer Proliferation IC50 Nanomoles per Liter (nM)) is 1.42 nM; in series [3] (setting [13]), 1.99 nM.

For the compound `CCN(c1cc(-c2ccc3c(c2)C2(CC3)CC(C)N(CC)C(C)C2)cc(C(=O)NCc2c(OC)cc(C)[nH]c2=O)c1C)C1CCOCC1` (centres unmarked) [Example 50, 3-(ethyl(tetrahydro-2H-pyran-4-yl)amino)-5-(1′-ethyl-2′,6′-dimethyl-2,3-dihydrospiro[indene-1,4′-piperidine]-6-yl)-N-((4-methoxy-6-methyl-2-oxo-1,2-dihydropyridin-3-yl)methyl)-2-methylbenzamide formate], the AUC in series [2] (setting [5]) was 954 ng·h/mL; in series [2] (setting [7]) it was 1350 ng·h/mL. Besides, in series [2] (setting [6]), the half-life was 1.34 h. Besides, in series [2] (setting [8]), the Cmax came out at 448 ng/mL. The bioavailability in series [2] (setting [9]) worked out at 28.2%. Also, the IC50 in series [3] (setting [13]) is 1.08 nM.

Regarding `CCN1CC2(CCOCC2)c2ccc(-c3cc(N(CC)C4CCOCC4)c(C)c(C(=O)NCc4c(C)cc(C)[nH]c4=O)c3Cl)cc21` [Example 54, 2-chloro-N-((4,6-dimethyl-2-carbonyl-1,2-dihydropyridin-3-yl)methyl)-5-(ethyl(tetrahydro-2H-pyran-4-yl)amino)-3-(1-ethyl-2′,3′,5′,6′-tetrahydrospiro[dihydroindole-3,4′-pyran]-6-yl)-6-methylbenzamide], the IC50 in series [1] (setting [4]) was 1.87 nM; in series [3] (setting [10]) it was 3.67 nM.

On to `CCCN1CC2(CCOCC2)c2ccc(-c3cc(N(CC)C4CCOCC4)c(C)c(C(=O)NCc4c(C)cc(C)[nH]c4=O)c3F)cc21` [Example 59, N-((4,6-dimethyl-2-carbonyl-1,2-dihydropyridin-3-yl)methyl)-3-(ethyl(tetrahydro-2H-pyran-4-yl)amino)-6-fluoro-2-methyl-5-(1-propyl-2′,3′,5′,6′-tetrahydrospiro[dihydroindole-3,4′-pyran]-6-yl)benzamide], for which the IC50 in series [1] (setting [4]) is 1.97 nM; in series [3] (setting [10]), 3.35 nM.

On to `CCN(c1cc(-c2ccc3c(c2)N(C(C)C)C(=O)C32CCOCC2)cc(C(=O)NCc2c(OC)cc(C)[nH]c2=O)c1C)C1CCOC(C)(C)C1` (centres unmarked) [Example 64, 3-((2,2-dimethyltetrahydro-2H-pyran-4-yl)(ethyl)amino)-5-(1-isopropyl-2-carbonyl-2′,3′,5′,6′-tetrahydrospiro[dihydroindole-3,4′-pyran]-6-yl)-N-((4-methoxy-6-methyl-2-carbonyl-1,2-dihydropyridin-3-yl)methyl)-2-methylbenzamide], for which the IC50 in series [3] (setting [13]) was 0.81 nM.

`CCN(c1cc(-c2ccc3c(c2)N(C(=O)C(F)(F)F)CC32CCOCC2)cc(C(=O)NCc2c(C)cc(C)[nH]c2=O)c1C)C1CCOCC1` [Example 75, 5-(1-trifluoroacetyl-2′,3′,5′,6′-tetrahydrospiro[dihydroindole-3,4′-pyran]-6-yl)-N-((4,6-dimethyl-2-carbonyl-1,2-dihydropyridin-3-yl)methyl)-3-(ethyl(tetrahydro-2H-pyran-4-yl)amino)-2-methylbenzamide]: the IC50 in series [1] (setting [4]) is 0.87 nM.

Take `CCN(c1cc(-c2ccc3c(c2)NC(=O)C32CCNCC2)cc(C(=O)NCc2c(OC)cc(C)[nH]c2=O)c1C)C1CCNCC1` [Example 116, 3-(Ethyl(piperidin-4-yl)amino)-N-((4-methoxy-6-methyl-2-oxo-1,2-dihydropyridin-3-yl)methyl)-2-methyl-5-(2-oxospiro[indole-3,4′-piperidine]-6-yl)benzamide]: the bioavailability in series [2] (setting [12]) worked out at 34.3%. Besides, the AUC in series [2] (setting [5]) came out at 912 ng·h/mL; in series [2] (setting [7]), 1570 ng·h/mL. Further, in series [2] (setting [6]), the half-life was 1.05 h. Moreover, the Cmax in series [2] (setting [8]) is 453 ng/mL.

“N-((4,6-dimethyl-2-carbonyl-1,2-dihydropyridin-3-yl)methyl)-3-(ethyl(tetrahydro-2H-pyran-4-yl)amino)-2-methyl-5-(1-neopentyl-2′,3′,5′,6′-tetrahydrospiro[dihydroindole-3,4′-pyran]-6-yl)benzamide [Example 29]”: the IC50 in series [1] (read-out: Pfeiffer Proliferation IC50 Nanomoles per Liter) was 2.13 nM; in series [3] (read-out: Karpas422 Proliferation IC50 Nanomoles per Liter), 3.01 nM.

(Values after US12473298B2, “Amide compounds, preparation method therefor, and use thereof in the medical field” (Shanghai Synergy Pharmaceutical Sciences Co., Ltd., priority 2019, dated 2025).)
